Assay results reported in article PMC11945486, “TAS1R2/TAS1R3 Single-Nucleotide Polymorphisms Affect Sweet Taste Receptor Activation by Sweeteners: The SWEET Project” (Nutrients, 2025).
Like-named read-outs stand apart in the source and are kept apart here. No end group written: not given here.

T1: human TAS1R2-WT/TAS1R3-S446N (Homo sapiens, UniProt Q7RTX0+Q8TE23, S446N)
T1 construct: expressed in transfected cells; host or cells: HEK293T stably expressing Gα16gust44
T1 sequence (Q8TE23 20-839): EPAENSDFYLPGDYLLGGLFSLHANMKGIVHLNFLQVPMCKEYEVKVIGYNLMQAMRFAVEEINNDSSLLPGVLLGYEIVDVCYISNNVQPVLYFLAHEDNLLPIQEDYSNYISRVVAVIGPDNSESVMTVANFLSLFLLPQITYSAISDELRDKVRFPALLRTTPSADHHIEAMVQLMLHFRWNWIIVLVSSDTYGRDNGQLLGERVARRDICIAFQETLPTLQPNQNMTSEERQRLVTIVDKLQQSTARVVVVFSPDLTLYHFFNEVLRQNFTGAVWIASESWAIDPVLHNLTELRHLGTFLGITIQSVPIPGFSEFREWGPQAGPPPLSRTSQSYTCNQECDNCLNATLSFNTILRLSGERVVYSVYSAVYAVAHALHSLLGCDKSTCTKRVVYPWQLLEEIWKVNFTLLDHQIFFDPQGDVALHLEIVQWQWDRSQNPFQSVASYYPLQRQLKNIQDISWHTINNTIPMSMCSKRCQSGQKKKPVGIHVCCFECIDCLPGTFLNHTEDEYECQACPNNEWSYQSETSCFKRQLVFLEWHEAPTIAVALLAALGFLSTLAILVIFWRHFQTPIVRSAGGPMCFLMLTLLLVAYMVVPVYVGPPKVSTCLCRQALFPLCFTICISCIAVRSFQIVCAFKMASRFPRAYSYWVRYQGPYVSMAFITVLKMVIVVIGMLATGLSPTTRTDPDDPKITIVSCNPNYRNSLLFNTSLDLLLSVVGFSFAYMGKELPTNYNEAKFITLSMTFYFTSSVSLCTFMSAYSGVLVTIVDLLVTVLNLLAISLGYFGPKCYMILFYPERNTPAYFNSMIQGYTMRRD
T1 sequence (Q7RTX0 21-852 S446N): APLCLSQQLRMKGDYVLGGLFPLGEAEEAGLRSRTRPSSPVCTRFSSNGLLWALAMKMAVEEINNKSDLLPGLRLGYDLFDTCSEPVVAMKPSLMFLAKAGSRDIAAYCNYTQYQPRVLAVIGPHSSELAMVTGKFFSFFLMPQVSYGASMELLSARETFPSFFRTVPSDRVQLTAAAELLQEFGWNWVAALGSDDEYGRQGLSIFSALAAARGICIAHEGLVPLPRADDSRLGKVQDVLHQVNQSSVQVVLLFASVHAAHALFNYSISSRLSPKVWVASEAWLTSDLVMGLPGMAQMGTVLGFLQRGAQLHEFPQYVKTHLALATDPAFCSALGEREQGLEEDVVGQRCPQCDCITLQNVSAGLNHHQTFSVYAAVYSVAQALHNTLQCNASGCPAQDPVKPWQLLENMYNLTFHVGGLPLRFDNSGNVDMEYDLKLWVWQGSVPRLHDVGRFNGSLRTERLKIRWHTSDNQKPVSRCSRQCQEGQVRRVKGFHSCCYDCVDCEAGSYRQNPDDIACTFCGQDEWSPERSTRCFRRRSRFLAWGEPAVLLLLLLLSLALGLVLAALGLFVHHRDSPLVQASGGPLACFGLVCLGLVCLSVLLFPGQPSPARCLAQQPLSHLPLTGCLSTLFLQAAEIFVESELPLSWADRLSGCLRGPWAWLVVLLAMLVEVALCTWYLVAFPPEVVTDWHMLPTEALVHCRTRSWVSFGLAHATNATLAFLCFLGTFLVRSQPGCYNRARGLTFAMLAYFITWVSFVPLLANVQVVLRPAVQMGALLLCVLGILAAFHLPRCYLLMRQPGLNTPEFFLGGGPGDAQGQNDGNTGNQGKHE


Biological target: T1, human TAS1R2-WT/TAS1R3-S446N
Assay: Calcium mobilisation assay, TAS1R2-WT with TAS1R3 variant S446N
Format: cell-based
Conditions: for Max ΔF/F0: maximal signal amplitude
Text: The coding sequences for TAS1R2 and TAS1R3 were commercially synthesised, and the human codon was optimised for expression in human cells. The coding sequences of human TAS1R2 and TAS1R3 were subcloned and inserted into the mammalian expression vectors pcDNA6/myc-HisA and pcDNA4/myc-HisA (Invitrogen; Thermo Fisher Scientific; Illkirch, France) between the EcoRI and NotI restriction sites, generating the plasmids pcDNA6-TAS1R2 and pcDNA4-TAS1R3, respectively. To increase protein expression in mammalian cells, an upstream start codon was used, which was a sequence called MAX, corresponding to the QBI SP163 element also described in pcDNA4-HisMax (Invitrogen; Thermo Fisher Scientific; Illkirch, France). To measure the expression level of the receptor by immunohistochemistry, we used the FLAG sequence ([…]) in the C-terminal position, which encodes the FLAG tag epitope. SNP variants of TAS1R2 and TAS1R3 were constructed based on […], respectively, using site-directed mutagenesis (Genewiz; Leipzig, Germany).
The HEK293T cells were kindly provided by Jay P. Slack (Givaudan Flavors Corporation; Cincinnati, OH, USA). HEK293T cells stably transfected with Gα16gust44 [43, 67] were seeded in poly-D-lysine-coated clear-bottom black 96-well plates (0.35 × 10^5 cells/well) in high-glucose DMEM supplemented with 2 mM GlutaMAX, 10% dialysed foetal bovine serum with penicillin/streptomycin and G418 (400 μg/mL) at 37 °C and 6.3% CO2 in a humidified atmosphere as previously reported. […] As a negative control, HEK293T cells were mock-transfected with the empty expression vector. After a further 24 h of incubation, the HEK293T cells were washed with C1 buffer (130 mM NaCl, 5 mM KCl, 10 mM HEPES pH 7.4 and 2 mM CaCl2). The 96-well plates containing the cells were then stimulated with sweet-tasting compounds. […] Different concentration ranges were tested depending on the sweet compound injected. The Ca^2+ changes were expressed as fractional changes in fluorescent light intensity: ΔF/F = (F − F0)/F0, where F was the fluorescent light intensity at each point, and F0 was the value of emitted fluorescent light prior to stimulus application. To calculate dose–response relationships, the changes in fluorescence upon stimulus application were averaged, mock-subtracted and baseline-corrected. The dose–response data obtained were adjusted using a 4-parameter logistic equation. The half-maximal effective concentrations (EC50 values) and maximal signal amplitudes were calculated using SigmaPlot software (version 15.0) (Systat Software; San Jose, CA, USA).
For in vitro calcium mobilisation assay performed on hTAS1R2-SNPs, hTAS1R3-SNPs and mTAS1R3-I60T, 6 to 7 concentrations were tested for each sweet compound, plus buffer alone. All concentration–receptor combinations were measured in duplicate, and each experiment was repeated at least 4 times (8 wells/concentration). Results were expressed for each concentration as ΔF/F mean ± SEM and represented as dose–response curves.

Row | Molecule | R1 = Variant EC50/WT EC50 | Max ΔF/F0 | EC50 (read-out: EC50) | EC50 (brazzein)
1 | CC1=CC(=O)NS(=O)(=O)O1 [Acesulfame K, acesulfame K] | 0.8 | 0.19 ± 0.01 | 487 ± 78 µM | 
2 | O=S(=O)(O)NC1CCCCC1 [Cyclamate, cyclamate] |  |  | 1480 ± 45 µM | 
3 | C[C@H](CC[C@@H](O[C@@H]1O[C@H](CO[C@@H]2O[C@H](CO)[C@@H](O)[C@H](O)[C@H]2O)[C@@H](O)[C@H](O)[C@H]1O[C@@H]1O[C@H](CO)[C@@H](O)[C@H](O)[C@H]1O)C(C)(C)O)[C@H]1CC[C@@]2(C)[C@@H]3CC=C4[C@@H](CC[C@H](O[C@@H]5O[C@H](CO[C@@H]6O[C@H](CO)[C@@H](O)[C@H](O)[C@H]6O)[C@@H](O)[C@H](O)[C@H]5O)C4(C)C)[C@]3(C)[C@H](O)C[C@]12C [Mogroside V, mogroside V] | 1.5 | 0.86 ± 0.01 | 47.7 ± 1.5 µM | 
4 | COc1ccc(CCC(=O)c2c(O)cc(O[C@@H]3O[C@H](CO)[C@@H](O)[C@H](O)[C@H]3O[C@@H]3O[C@@H](C)[C@H](O)[C@@H](O)[C@H]3O)cc2O)cc1O [NHDC, neohesperidin dihydrochalcone] | 1.0 | 1.07 ± 0.06 | 49.4 ± 8.6 µM | 
5 | COC(=O)[C@H](Cc1ccccc1)NC(=O)[C@H](CC(=O)O)NCCC(C)(C)C [Neotame] | 1.0 | 0.63 ± 0.02 | 1.22 ± 0.1 µM | 
6 | C=C(C)[C@@H]1CC=C(/C=N/O)CC1 [Perillartine, perillartine] | 1.1 | 1.42 ± 0.26 | 15.3 ± 8.6 µM | 

Now from value to molecule:

Row | R1 = Variant EC50/WT EC50 | Max ΔF/F0 | EC50 (read-out: EC50) | EC50 (brazzein) | Molecule
7 | 0.9 | 0.64 ± 0.03 | 36.9 ± 3.6 µM |  | C=C1C[C@@]23CC[C@H]4[C@@](C)(CCC[C@@]4(C)C(=O)O[C@@H]4O[C@H](CO)[C@@H](O)[C@H](O[C@@H]5O[C@H](CO)[C@@H](O)[C@H](O)[C@H]5O)[C@H]4O[C@@H]4O[C@H](CO)[C@@H](O)[C@H](O)[C@H]4O)[C@@H]2CC[C@]1(O[C@@H]1O[C@H](CO)[C@@H](O)[C@H](O[C@@H]2O[C@H](CO)[C@@H](O)[C@H](O)[C@H]2O)[C@H]1O[C@@H]1O[C@H](CO)[C@@H](O)[C@H](O)[C@H]1O)C3 [Rebaudioside M, rebaudioside M]
8 | 1.4 | 0.68 ± 0.02 | 155 ± 11 µM |  | OC[C@H]1O[C@H](O[C@]2(CCl)O[C@H](CCl)[C@@H](O)[C@@H]2O)[C@H](O)[C@@H](O)[C@H]1Cl [Sucralose]
9 | 1.1 | 0.98 ± 0.03 |  | 120.8 ± 9.3 µg/mL | brazzein (QDKCKKVYENYPVSKCQLANQCNYDCKLDKHARSGECFYDEKRNLQCICDYCEY; ends and bridges not checked; cysteine pairing not given here; UniProt P56552 1-54, looked up) [sweet-tasting protein obtained by recombinant production using the yeast Pichia pastoris]
10 | 0.9 | 0.70 ± 0.04 |  |  | thaumatin
11 |  |  | 9.8 ± 1.1 µM |  | thaumatin (protein, Eight disulfides, sweet-tasting plant protein, E957) ATFEIVNRCSYTVWAAASKGDAALDAGGRQLNSGESWTINVEPGTKGGKIWARTDCYFDDSGSGICKTGDCGGLLRCKRFGRPPTTLAEFSLNQYGKDYIDISNIKGFNVPMDFSPTTRGCRGVRCAADIVGQCPAKLKAPGGGCNDACTVFQTSEYCCTTGKCGPTEYSRFFKRLCPDAFSYVLDKPTTVTCPGSSNYRVTFCPTA
